US10766914B2, “DNA alkylating agents” (OBI PHARMA, INC., priority 2015, dated 2020)

How the values were obtained:
[1] = system: H460 cells; test: Proliferation assay in H460 cells (2 hr exposure, AlamarBlue); format: cell-based, human; conditions: Homo sapiens, NCI-H460, 2 hrs exposure, wash, 70 hrs growth, read-out: IC 50 in proliferation assay in H460 cells
Procedure: In vitro proliferation data on the H460 […] human tumor cell line is reported above in the compound table.
Specifically, exponentially growing cells were seeded at a density of 4×10^3 cells per well in a 96 well plate and incubated at 37° C. in 5% CO2, 95% air and 100% relative humidity for 24 hours prior to addition of test compounds. Compounds were solubilized in 100% DMSO at 200 times the desired final test concentration. At the time of drug addition, compounds were further diluted to 4 times the desired final concentration with complete medium. Aliquots of 50 μl of compound at specified concentrations were added to microtiter wells already containing 150 μl of medium, resulting in the final drug concentration reported. After drug addition, the plates were incubated for an additional 2 hours at 37° C., 5% CO2, 95% air, and 100% relative humidity, then the drug was washed off and fresh medium was added and the plates were incubated for addition 70 hrs at 37° C., 5% CO2, 95% air and 100% relative humidity. At the end of this incubation, the viable cells were quantified using the AlamarBlue assay. The drug concentration resulting in growth inhibition of 50% (IC50) was calculated using Prism software (Irvine, Calif.), and the results were listed in the table.

[2] = Pharmacokinetics in CD-1 mice following a single intraperitoneal dose (parent and TH2660); conditions: mouse, in vivo, ip, parent compound
Procedure: The pharmacokinetics of TH2873, TH2883, TH2888, TH2890, TH2901 and TH2926 were determined in CD-1 mice following a single intraperitoneal dose.
The pharmacokinetics of TH2660, the active metabolite, following a single intraperitoneal dose of TH2873, TH2883, TH2888, TH2890, TH2901 and TH2926 are shown below.

[3] = Example 4-D body weight change and lethal toxicity, A549 xenograft study; format: in vivo, female nude mice (nu/nu)
Procedure: Cells were mixed with Matrigel (50% with exception for 30% in the H460) and 0.2 ml per mouse were subcutaneously implanted to the flank area of the animals. When tumor size reached 100-150 250 mm3, mice were randomized into experimental or vehicle groups with 10 mice/group and treatment was started (Day 1). The tested compounds were formulated in 5% DMSO in D5W. The regimens employed in the examples include IP, QD×5/wk (5 days on, 2 days off) as one cycle, for a total of 2 cycles; IP, once; IP, weekly for total 3 weeks; and IV, weekly for 3 weeks. Tumor growth and body weight were measured twice a week. Tumor volume was calculated as (length×width2)/2. Drug efficacy was assessed as Tumor Growth Inhibition (TGI) and Tumor Growth Delay (TGD). TGI was defined as (1−ΔT/ΔC)×100, where ΔT/ΔC presented the ratio of the change in mean (or median, if variation within the group was relatively large) tumor volume of the treated group and of the control group. TGD was calculated as the extra days for the treated tumor to reach 500 mm3 or 1000 mm3 as compared to the control group. Animals were culled when individual tumor size reached over 2000 mm3 or mean tumor volume exceeded 1000 mm3 in the group. Data are expressed as the mean±SEM. One-way analysis of variance with Dunnett post comparison test (GraphPad Prism 4) or two-tailed student's t-test were used for analysis. A P level <0.05 was considered statistically significant.
The compounds were tested in another A549 model. The compounds were dosed as follows. Daily IP dosing: 5 doses then 2 days off then 5 more doses starting at 100 mm^3 tumors on day 1 (10 animals per group average tumor volume). The antitumor effects and the safety of administration are graphically illustrated below.

SMILES | IC50 [1] [nM] | further results
O=[N+]([O-])c1ccc(COP(=O)(N2CC2)N2CC2)cc1Oc1ccc2ncsc2c1 [Compound 2901] | 3 | AUC [2]: 2580 ng·h/mL; Cmax [2]: 5120 ng/mL; Tmax [2]: 5 min; half-life [2]: 12.1 min
CC(OP(=O)(N1CC1)N1CC1)c1ccc([N+](=O)[O-])c(Oc2ccc(NS(=O)(=O)CCl)cc2)c1 (stereo not shown) [Compound 2926] | 20 | AUC [2]: 9650 ng·h/mL; Cmax [2]: 8340 ng/mL; Tmax [2]: 15 min; half-life [2]: 34.2 min
Cc1nc2ccc(Oc3cc(COP(=O)(N4CC4)N4CC4)ccc3[N+](=O)[O-])cc2s1 [Compound 2931] | 1 | Max. BW loss % ([3]; 5 mg/kg IP QD × 5): 25.0%; Lethal Tox ([3]; 5 mg/kg IP QD × 5, 10 animals per group): 10
CC(OP(=O)(N1CC1)N1CC1)c1ccc([N+](=O)[O-])c(Oc2nccs2)c1 (stereo not shown) [Compound 2944] | > 5000 | 
CC(OP(=O)(N1CC1)N1CC1)c1ccc([N+](=O)[O-])c(Oc2cccc3cnccc23)c1 (stereo not shown) [Compound 2945] | 50 | 
CS(=O)(=O)Nc1ccc(Oc2cc(COP(=O)(N3CC3)N3CC3)ccc2[N+](=O)[O-])cc1 [Compound 2946] | 30 | 
CC(OP(=O)(N1CC1)N1CC1)c1ccc([N+](=O)[O-])c(O/N=C(\C#N)c2ccccc2)c1 (stereo not shown) [Compound 2947] | 200 | 
N#C/C(=N\Oc1cc(COP(=O)(N2CC2)N2CC2)ccc1[N+](=O)[O-])c1ccccc1 [Compound 2948] | 40 | 
C/C(=N\Oc1cc(COP(=O)(N2CC2)N2CC2)ccc1[N+](=O)[O-])c1ccccc1 [Compound 2949] | 400 | 
CC(OP(=O)(N1CC1)N1CC1)c1ccc([N+](=O)[O-])c(Oc2cccc(S(C)(=O)=O)c2)c1 (stereo not shown) [Compound 2950] | 40 | 
CS(=O)(=O)c1cccc(Oc2cc(COP(=O)(N3CC3)N3CC3)ccc2[N+](=O)[O-])c1 [Compound 2951] | 20 | 
CC(OP(=O)(N1CC1)N1CC1)c1ccc([N+](=O)[O-])c(Oc2cccc3ccccc23)c1 (stereo not shown) [Compound 2954] | 100 | 
CC(OP(=O)(N1CC1)N1CC1)c1ccc([N+](=O)[O-])c(Oc2cnc3ccccc3c2)c1 (stereo not shown) [Compound 2956] | 4 | 
CC(OP(=O)(N1CC1)N1CC1)c1ccc([N+](=O)[O-])c(Oc2ccc3cccnc3c2)c1 (stereo not shown) [Compound 2957] | 40 | 
O=[N+]([O-])c1ccc(COP(=O)(N2CC2)N2CC2)c(Oc2ccccc2)c1 [Compound 2960] | 1600 | 
C/C(=N\Oc1cc(C(C)OP(=O)(N2CC2)N2CC2)ccc1[N+](=O)[O-])c1ccccc1 (stereo not shown) [Compound 2961] | 2700 | 
O=[N+]([O-])c1ccc(COP(=O)(N2CC2)N2CC2)cc1Oc1cccc2ccccc12 [Compound 2966] | 200 | 
O=[N+]([O-])c1ccc(COP(=O)(N2CC2)N2CC2)cc1Oc1cccc2ncccc12 [Compound 2967] | 100 | 
O=[N+]([O-])c1ccc(COP(=O)(N2CC2)N2CC2)cc1Oc1ccc2ccccc2c1 [Compound 2968] | 4 | 
O=[N+]([O-])c1ccc(COP(=O)(N2CC2)N2CC2)cc1Oc1cnc2ccccc2c1 [Compound 2969] | 2 | 
O=[N+]([O-])c1ccc(COP(=O)(N2CC2)N2CC2)cc1Oc1ccc2cccnc2c1 [Compound 2970] | 40 | 
O=[N+]([O-])c1ccc(COP(=O)(N2CC2)N2CC2)cc1Oc1ccc2ncccc2c1 [Compound 2971] | 3 | 
CC(OP(=O)(N1CC1)N1CC1)c1ccc([N+](=O)[O-])c(Oc2cccc(C(=O)N3CCOCC3)c2)c1 (stereo not shown) [Compound 2972] | 10 | 
O=C(c1cccc(Oc2cc(COP(=O)(N3CC3)N3CC3)ccc2[N+](=O)[O-])c1)N1CCOCC1 [Compound 2973] | 20 | 

SMILES | IC50 [1] [nM] | further results
CN(C(=O)c1ccc(Oc2cc(COP(=O)(N3CC3)N3CC3)ccc2[N+](=O)[O-])cc1)c1ccccc1 [Compound 2974] | 1 | 
CC(OP(=O)(N1CC1)N1CC1)c1ccc([N+](=O)[O-])c(Oc2ccc(C(=O)N(C)c3ccccc3)cc2)c1 (stereo not shown) [Compound 2978] | 2 | 
CC(OP(=O)(N1CC1)N1CC1)c1ccc([N+](=O)[O-])c(Oc2ccccc2S(C)(=O)=O)c1 (stereo not shown) [Compound 2980] | 3000 | 
CS(=O)(=O)c1ccccc1Oc1cc(COP(=O)(N2CC2)N2CC2)ccc1[N+](=O)[O-] [Compound 2981] | 3700 | 
CC(OP(=O)(N1CC1)N1CC1)c1ccc([N+](=O)[O-])c(Oc2cccc(C(=O)N3CCCCC3)c2)c1 (stereo not shown) [Compound 2982] | 4 | 
O=C(c1cccc(Oc2cc(COP(=O)(N3CC3)N3CC3)ccc2[N+](=O)[O-])c1)N1CCCCC1 [Compound 2983] | 4 | 
CC(OP(=O)(N1CC1)N1CC1)c1ccc([N+](=O)[O-])c(Oc2cccc(C(=O)N3CCCC3)c2)c1 (stereo not shown) [Compound 2984] | 5 | 
CCN(CC)C(=O)c1cccc(Oc2cc(C(C)OP(=O)(N3CC3)N3CC3)ccc2[N+](=O)[O-])c1 (stereo not shown) [Compound 2985] | 4 | 
CC(OP(=O)(N1CC1)N1CC1)c1ccc([N+](=O)[O-])c(Oc2cccc(-c3ccccc3)c2)c1 (stereo not shown) [Compound 2991] | 6 | 
CC(OP(=O)(N1CC1)N1CC1)c1ccc([N+](=O)[O-])c(Oc2cccc(C(=O)N(C)c3ccccc3)c2)c1 (stereo not shown) [Compound 2992] | 4 | 
CC(OP(=O)(N1CC1)N1CC1)c1ccc([N+](=O)[O-])c(Oc2cccc(C(=O)N3CCS(=O)(=O)CC3)c2)c1 (stereo not shown) [Compound 2993] | 20 | 
CC(OP(=O)(N1CC1)N1CC1)c1ccc([N+](=O)[O-])c(Oc2ccccc2-c2ccccc2)c1 (stereo not shown) [Compound 3028] | 700 | 
O=[N+]([O-])c1ccc(COP(=O)(N2CC2)N2CC2)cc1Oc1ccccc1-c1ccccc1 [Compound 3029] | 600 | 
Cc1ccc(Oc2cc(C(C)OP(=O)(N3CC3)N3CC3)ccc2[N+](=O)[O-])cc1 (stereo not shown) [Compound 3030] | 20 | 
Cc1ccc(Oc2cc(COP(=O)(N3CC3)N3CC3)ccc2[N+](=O)[O-])cc1 [Compound 3031] | 10 | 
Cc1ccccc1-c1ccc(Oc2cc(C(C)OP(=O)(N3CC3)N3CC3)ccc2[N+](=O)[O-])cc1 (stereo not shown) [Compound 3032] | 3 | 
Cc1ccccc1-c1ccc(Oc2cc(COP(=O)(N3CC3)N3CC3)ccc2[N+](=O)[O-])cc1 [Compound 3033] | 1 | 
CC(OP(=O)(N1CC1)N1CC1)c1ccc([N+](=O)[O-])c(Oc2ccc(C(C)(C)C)cc2)c1 (stereo not shown) [Compound 3034] | 8 | 
CC(C)(C)c1ccc(Oc2cc(COP(=O)(N3CC3)N3CC3)ccc2[N+](=O)[O-])cc1 [Compound 3035] | 1 | 
CC(OP(=O)(N1CC1)N1CC1)c1ccc([N+](=O)[O-])c(Oc2ccc(C(F)(F)F)cc2)c1 (stereo not shown) [Compound 3036] | 4 | 
O=[N+]([O-])c1ccc(COP(=O)(N2CC2)N2CC2)cc1Oc1ccc(C(F)(F)F)cc1 [Compound 3037] | 1 | 
CC(OP(=O)(N1CC1)N1CC1)c1ccc([N+](=O)[O-])c(Oc2ccc(-c3ccc(Cl)cc3)cc2)c1 (stereo not shown) [Compound 3041] | 50 | 
CC(OP(=O)(N1CC1)N1CC1)c1ccc([N+](=O)[O-])c(Oc2ccc(-c3ccc(F)cc3)cc2)c1 (stereo not shown) [Compound 3042] | 5 | 
O=[N+]([O-])c1ccc(COP(=O)(N2CC2)N2CC2)cc1Oc1ccc(-c2ccncc2)cc1 [Compound 3050] | 10 | 
